In PubChem BioAssay (NCI):
Values joined by “and” are separate entries in the source; they are usually repeats but may differ in a detail not shown here. Equal values may be shown once.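 1) Cells in 96-well plates. 2) Compound, 48 h, 5 concentrations. 3) Linear interpolation between surrounding doses. 4) Unreached endpoint = highest concentration. At the GI50, growth is halved. At the TGI there is no net growth.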

What was measured:
Experiment in all cases: growth of human tumour cells (NCI), 48 h
[1] = system: NCI-H522 lung
[2] = system: OVCAR-8 ovarian
[3] = system: U251 CNS
[4] = system: SF-539 CNS
[5] = system: RXF 393 renal
[6] = system: UACC-257 melanoma
[7] = system: MCF7 breast
[8] = system: DU-145 prostate
[9] = system: PC-3 prostate
[10] = system: A549 NSCLC
[11] = system: 786-0 renal
[12] = system: SR leukemia
[13] = system: HCT-116 colon
[14] = system: SK-MEL-2 melanoma
[15] = system: UO-31 renal
[16] = system: SW-620 colon
[17] = system: SK-OV-3 ovarian
[18] = system: COLO 205 colon
[19] = system: NCI-H460 lung

SMILES	TGI [1] [µM]	TGI [2] [µM]	TGI [3] [µM]	TGI [4] [µM]	TGI [5] [µM]	TGI [6] [µM]	TGI [7] [µM]	TGI [8] [µM]	TGI [9] [µM]	TGI [10] [µM]	TGI [11] [µM]	TGI [12] [µM]	TGI [13] [µM]	TGI [14] [µM]	TGI [15] [µM]	TGI [16] [µM]	TGI [17] [µM]	TGI [18] [µM]	TGI [19] [µM]	GI50 [12]
COc1cc([C@@]23OC[C@@H]4[C@@H](OC[C@@H]42)c2cc4c(cc23)OCO4)cc(OC)c1OC	< 0.01	> 100	> 74.5	> 47.1	> 100	> 100	> 100	> 100	> 100	> 100	> 100	> 77	> 100	62.8	> 100	> 100	–	–	–	–
O=c1[nH]nc(Cn2c3ccc(Br)cc3c3nc4ccccc4nc32)n1C1CCCCC1	–	> 100	> 100	46	> 100	> 100	> 100	> 100	59.8	> 100	> 100	> 100	> 100	> 100	> 100	> 100	> 100	> 100	> 100	–
COc1ccccc1N=N/C(=N\NC(=O)c1ccc(C)cc1)c1ccc(N(CCC#N)CCC#N)cc1C	–	> 100	> 100	> 100	> 100	> 100	> 100	> 100	> 100	> 100	> 100	> 100	> 100	> 100	> 100	> 100	> 100	37.3	> 100	–
CCN(CC)c1ccc2cc(-c3nnc(-c4ccccc4O)o3)c(=O)oc2c1	25.5	11.9	21	22.4	–	35.1	> 100	23.6	22.4	29.1	21.9	33.7	21.9	30.2	22.7	26.9	> 100	33.6	27.9	–
CC1(C)C2CC3C4CC5(Nc6ccccc6C5N41)[C@]3(C)CC2=O (stereo partly drawn)	> 50	> 50	> 50	> 50	> 50	> 50	> 50	> 50	> 50	> 50	> 50	> 50	> 50	> 50	> 50	> 50	–	> 50	> 50	–
Cc1nc2ccc(NC3OC(CO)C(O)C(O)C3O)cc2c(=O)n1-c1ccccc1 (stereo not drawn)	> 100	> 100	> 100	–	> 100	> 100	> 100	> 100	> 100	–	> 100	> 100	> 100	> 100	> 100	> 100	–	> 100	> 100	11.1 µM and > 100 µM
CN(C)CCn1c(=O)c2ccc3c4c(nn3CCN(C)C)c3cc([N+](=O)[O-])ccc3n(c1=O)c24	0.2	0.959	2.94	2.83	0.434	1.99	0.65	1.2	0.576	1.23	0.277	–	0.325	0.31	0.363	0.979	0.959	0.297	0.176	–
SCc1ccc(CS)s1	> 100	> 100	> 100	> 100	–	> 100	> 100	> 100	> 100	> 100	> 100	> 100	> 100	–	> 100	> 100	> 100	> 100	> 100	–
Fc1cccc(Cl)c1C1SCc2nc3cc4ccccc4cc3n21 (stereo not drawn)	–	> 100	> 100	> 100	> 100	> 100	> 100	> 100	> 100	> 100	> 100	> 100	> 100	> 100	–	> 100	> 100	> 100	–	–
O=C(CN1CCOCC1)c1ccc2c(c1)oc(=O)n2CCN1CCCC1	–	> 100	> 100	> 100	> 100	> 100	> 100	> 100	> 100	–	> 100	> 100	> 100	> 100	–	> 100	> 100	> 100	> 100	–
O=C(N/N=C/c1ccccc1O)c1ccccc1Nc1ccccc1C(=O)N/N=C/c1ccccc1O	> 100	11.7	> 100	> 100	> 100	> 100	> 100	> 100	> 100	> 100	> 24.2	–	3.5	> 100	> 100	> 100	> 100	> 100	> 100	–
Cc1ccc(N=NN(C)C(=O)C(C)N)cc1 (stereo not drawn)	> 100	> 100	> 100	> 100	> 100	> 100	> 100	> 100	> 100	–	> 100	> 100	> 100	> 100	> 100	> 100	–	> 100	> 100	–
COc1ccc(N=Nc2c(C)c(C#N)c(=S)n(C3OC(CO)C(O)C(O)C3O)c2C)cc1 (stereo not drawn)	–	–	> 100	> 100	> 100	> 100	> 100	> 100	> 100	> 100	> 100	87.1	> 100	> 100	> 100	> 100	> 100	> 100	> 100	–
COC(=O)C1=CN(C2CCCCC2)C2(c3ccccc3)c3ccccc3C(=O)OC(=O)C12 (stereo not drawn)	> 100	> 100	> 100	> 100	97.2	> 100	> 100	> 100	> 100	> 100	> 100	–	> 100	> 100	> 100	> 100	> 100	> 100	> 100	–
CCOC(=O)c1nc2ccccc2nc1Oc1cc(OC)c(OC)c(OC)c1	> 100	> 100	99.4	> 100	–	> 100	> 100	> 100	> 100	> 100	> 100	> 100	> 100	> 100	> 100	> 100	–	> 100	> 100	–
Cc1c(N/C=C(\C#N)C(=O)c2ccc(Cl)cc2)c(=O)n(-c2ccccc2)n1C	> 100	> 100	> 100	> 100	> 100	> 100	> 100	> 100	> 100	> 100	> 100	–	> 100	> 100	> 100	> 100	> 100	> 100	> 100	–
CCCCCCCCCCCCOc1ccc(/C=C/C2=[N+](CCCl)CCO2)cc1	47	> 100	58.4	> 100	–	> 100	> 100	> 100	> 100	> 100	42.7	50.9	33.5	> 100	> 100	> 100	> 100	> 100	> 100	–
CC(C)(C)OC(=O)C1=C2C=C(O)C=CC2(C)N(Cc2ccccc2)C1=N (stereo not drawn)	4	10.6	43.3	12.7	6.96	18.7	9.99	12.8	19.8	28.1	12.7	–	9.83	33.1	10.7	5.69	42.1	6.24	34.7	–
O=C1NC(=O)/C(=C/c2ccc(S(=O)(=O)N/N=C\C(O)C(O)C(O)C(O)CO)cc2)N1 (stereo not drawn)	–	> 100	> 100	–	> 100	> 100	> 100	> 100	> 100	> 100	> 100	> 100	> 100	> 100	> 100	> 100	> 100	> 100	> 100	–
O=C(O)CN1CCN(CC(=O)N2CCN(C(=O)OCc3ccccc3)CC2)CCN(CC(=O)O)CCN(CC(=O)N2CCN(C(=O)OCc3ccccc3)CC2)CC1	> 100	> 100	> 100	> 100	–	> 100	> 100	> 100	> 100	> 100	> 100	> 100	> 100	> 100	> 100	> 100	> 100	> 100	> 100	–
COC(=O)[C@@H](Cc1ccccc1)N1O[C@]12CCCC[C@@H]2NC(=O)OC(C)(C)C (stereo partly drawn)	30.4	–	77.9	33.3	56.1	> 100	28.5	79	84.2	> 100	51.3	74.4	> 100	49	27.5	29.3	–	75.5	90.6	–
COc1ccc(/C=C2\Sc3nnc(CNc4ccc(Cl)cc4)n3N=C2c2cc(F)c(Cl)cc2Cl)cc1OC	> 100	> 100	> 100	> 100	74.2	> 100	> 100	> 100	> 100	–	> 100	> 100	> 100	> 100	> 100	36.9	> 100	–	> 100	–
CN(C)c1ccc(-c2ccc(N(C)C)c3n[se]nc23)c2n[se]nc12	> 100	> 100	> 100	> 100	> 100	> 100	> 100	> 100	> 100	> 100	> 100	> 100	> 100	> 100	> 100	> 100	> 100	–	> 100	–
CC(=O)c1cccc(NC(=O)C(=O)C(c2cnc3ccc([N+](=O)[O-])cc3n2)[N+](=O)[O-])c1 (stereo not drawn)	–	> 100	> 100	> 100	> 100	> 100	> 100	> 100	> 100	–	> 100	> 100	> 100	> 100	> 100	> 100	> 100	> 100	> 100	–
Oc1ccccc1C1=NOC(c2ccc(C(F)(F)F)cc2)C1 (stereo not drawn)	> 50	> 50	> 50	> 50	> 50	> 50	> 50	> 50	> 50	> 50	> 50	–	> 50	> 50	> 50	> 50	> 50	> 50	> 50	–
CO[C@@H]1C[C@H]2N3CC[C@@]2(c2cc4c(cc2C3)OCO4)[C@H]2O[C@@H]12	> 100	> 100	> 100	2.88	> 100	> 100	> 100	> 100	> 100	> 100	> 100	–	> 100	> 100	> 100	> 100	> 100	2.24	> 100	–
